Read-outs that look alike come from different tables or passages of the source.

The target of one data set is T1, MRGPRX2 (Homo sapiens, UniProt Q96LB1).
T1 sequence (Q96LB1 1-330): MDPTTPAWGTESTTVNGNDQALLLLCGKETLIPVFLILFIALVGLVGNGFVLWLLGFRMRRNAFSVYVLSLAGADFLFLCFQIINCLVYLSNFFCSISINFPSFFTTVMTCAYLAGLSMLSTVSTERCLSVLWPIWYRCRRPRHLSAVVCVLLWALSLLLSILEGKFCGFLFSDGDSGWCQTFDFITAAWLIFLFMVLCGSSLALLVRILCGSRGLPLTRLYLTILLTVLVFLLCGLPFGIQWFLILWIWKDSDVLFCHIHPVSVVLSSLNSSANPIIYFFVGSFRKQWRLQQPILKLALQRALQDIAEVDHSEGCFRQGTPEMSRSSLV
Description: Calcium mobilization (FLIPR TETRA) in BacMam-transduced U2OS cells. The settings on record: for Agonist activity: up to the highest concentration tested. Type of data set: cell-based. Set-up: expressed in transfected cells; host or cells: U2OS transduced with BacMam virus; Agonist activity: dose or concentration left out as unconfirmed. The method, then:
Cell culture reagents were purchased from Thermo Fisher Scientific unless otherwise stated. The LAD2 human mast cell line was in-licensed from National Institutes of Health (NIH) and routinely cultured in StemPro™-34 SFM with nutrient supplement, 1× GlutaMax™, and recombinant human SCF (100 ng/mL). HEK293-MRGPRX2/Gα15 cells were cultured in DMEM containing 10% FBS. The parental U2OS cells were culture in DMEM/F-12 containing 10% FBS. BacMam virus containing human MRGPRX2 gene or animal orthologs [mouse Mrgprb2 (Gene ID: 243979), rat Mrgprb3 (Gene ID: 691194), dog MRGPRX2 (Gene ID: 102125889), cynomolgus monkey MRGPRX2 (Gene ID: 692078), and rhesus monkey MRGPRX2] were used to transduce U2OS cells for transient expression.
Supplemental Table 1: Compound A and Compound B are human MRGPRX2 selective antagonists. Antagonist and agonist activities of the two compounds were determined in calcium mobilization assays for human MRGPRX2 and its animal orthologs from various species. The activities were measured in […] (Molecular Devices) instrument using U2OS cells transduced with BacMam virus for transient expression of the relevant receptors. Data are presented as mean ± SEM when applicable.
Compound A and Compound B up to the highest concentration (100 µM) tested. In the antagonist […]
Compound A and B, respectively. […]
(In general: A change in cytosolic calcium serves as a functional read-out for many receptors and channels.)

In another data set the target is T2, A2A receptor (ADORA2A) (Homo sapiens, UniProt P29274).
T2 construct: expressed in transfected cells
T2 sequence (P29274 whole entry): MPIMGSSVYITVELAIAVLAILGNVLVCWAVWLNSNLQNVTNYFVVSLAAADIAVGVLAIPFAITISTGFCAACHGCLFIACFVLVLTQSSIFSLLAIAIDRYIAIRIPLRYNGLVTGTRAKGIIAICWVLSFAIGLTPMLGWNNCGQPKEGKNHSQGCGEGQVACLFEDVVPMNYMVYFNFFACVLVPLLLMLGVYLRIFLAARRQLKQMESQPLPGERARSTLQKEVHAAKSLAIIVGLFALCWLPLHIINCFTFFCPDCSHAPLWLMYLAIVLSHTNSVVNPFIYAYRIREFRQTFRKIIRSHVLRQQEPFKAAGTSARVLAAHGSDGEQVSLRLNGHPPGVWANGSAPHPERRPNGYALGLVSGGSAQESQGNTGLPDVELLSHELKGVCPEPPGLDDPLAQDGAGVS
Put plainly: GPCR selectivity cellular assay. Type of data set: cell-based. Particulars: Agonism; read-out: Agonist Activity (EC50).

Data set [1] relates to ion channel and enzyme targets. Description: In vitro assays of the human safety prediction panel. The settings on record: data not shown. An excerpt: Among them, the NK1 receptor with which SP is the canonical and high-affinity endogenous ligand.
Another data set addresses T3, C3aR1 (Homo sapiens, UniProt Q16581).
T3 sequence (Q16581 1-482): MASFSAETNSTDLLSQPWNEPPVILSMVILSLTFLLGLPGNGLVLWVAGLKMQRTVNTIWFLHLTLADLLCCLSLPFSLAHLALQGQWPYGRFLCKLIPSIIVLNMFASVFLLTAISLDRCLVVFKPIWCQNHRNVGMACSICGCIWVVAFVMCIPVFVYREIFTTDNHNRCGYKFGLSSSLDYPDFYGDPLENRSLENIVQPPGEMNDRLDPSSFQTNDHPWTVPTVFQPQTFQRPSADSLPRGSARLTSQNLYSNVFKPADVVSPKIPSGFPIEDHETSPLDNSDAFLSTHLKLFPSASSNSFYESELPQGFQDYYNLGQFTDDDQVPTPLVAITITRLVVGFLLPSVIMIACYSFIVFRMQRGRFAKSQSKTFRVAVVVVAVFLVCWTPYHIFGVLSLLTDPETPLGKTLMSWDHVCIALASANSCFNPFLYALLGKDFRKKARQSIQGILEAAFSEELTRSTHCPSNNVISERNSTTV
The settings on record: for Effect on C3a-stimulated LAD2 degranulation: increasing concentrations of antagonist.

The next data set concerns the target T4, MRGPRX1 (Homo sapiens, UniProt Q96LB2).
T4 construct: expressed in transfected cells
Description: GPCR selectivity cellular assay. Type of data set: cell-based. Particulars: for EC50: Agonism, read-out: Agonist Activity (EC50); for IC50: Antagonism, read-out: Antagonist Activity (IC50). The procedure: Antagonist and/or agonist activities of the two compounds were determined in cellular assays for 20 human G-protein coupled receptors (GPCR) beside MRGPRX2. Recombinant over-expression systems in mammalian cells were used for all assays listed in this table. […]
reported as ‘>’ the highest compound concentration allowed in that assay. […]
Agonist Activity (EC50 ) or Antagonist Activity (IC50 ), nM

Data set [2] addresses T5, ß2-Adrenoreceptor (ADRB2) (Homo sapiens, UniProt P07550).
T5 construct: expressed in transfected cells
Description: GPCR selectivity cellular assay. Type of data set: cell-based. The procedure:
(§1) tagonists, with little activity detected on other GPCRs. Antagonist and/or agonist activities of the two compounds were determined in cellular assays for 20 human G-protein coupled receptors (GPCR) beside MRGPRX2. Recombinant over-expression systems in mammalian cells were used for all assays listed in this table. […]
(§2) reported as ‘>’ the highest compound concentration allowed in that assay.
(§3) GPCR Target Name Gene symbol Mode of Activity Compound-A Compound-B […]
(§4) Agonist Activity (EC50 ) or Antagonist Activity (IC50 ), nM […]

For data set [3], the target named is T6, a2C-Adrenoreceptor (ADRA2C) (Homo sapiens, UniProt P18825).
T6 construct: expressed in transfected cells
T6 sequence (P18825 whole entry): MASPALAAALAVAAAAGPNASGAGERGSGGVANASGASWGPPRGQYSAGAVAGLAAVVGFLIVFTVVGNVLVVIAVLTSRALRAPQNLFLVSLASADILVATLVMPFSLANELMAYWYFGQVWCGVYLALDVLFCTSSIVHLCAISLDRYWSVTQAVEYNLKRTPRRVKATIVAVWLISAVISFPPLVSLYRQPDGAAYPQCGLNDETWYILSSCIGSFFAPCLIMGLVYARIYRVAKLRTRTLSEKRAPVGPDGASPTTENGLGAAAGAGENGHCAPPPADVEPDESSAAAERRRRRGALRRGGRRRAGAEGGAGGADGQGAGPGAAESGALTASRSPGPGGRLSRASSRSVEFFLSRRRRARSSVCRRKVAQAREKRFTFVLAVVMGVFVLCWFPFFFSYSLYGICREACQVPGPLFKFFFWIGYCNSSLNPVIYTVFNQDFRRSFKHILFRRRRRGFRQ
Description: GPCR selectivity cellular assay. The class given is cell-based. The settings on record: Agonism; read-out: Agonist Activity (EC50). The method, then: as §1, §2, §3, §4

The next data set has as its target T7, D2 receptor (DRD2) (Homo sapiens, UniProt P14416).
T7 construct: expressed in transfected cells
Put plainly: GPCR selectivity cellular assay. Type of data set: cell-based. The method, then: as §1, §2, §3, §4

Another data set has as its target T8, H3 receptor (HRH3) (Homo sapiens, UniProt Q9Y5N1).
T8 construct: expressed in transfected cells
Description: GPCR selectivity cellular assay. Type of data set: cell-based. Particulars: Antagonism; read-out: Antagonist Activity (IC50). The method, then: as §1, §2, §3, §4

A further data set addresses µ-Receptor (OPRM1) (Homo sapiens, UniProt P35372). Put plainly: GPCR selectivity cellular assay. Type of data set: cell-based. Particulars: Agonism; read-out: Agonist Activity (EC50). The method, then: as §1, §2, §3, §4
[4] abbreviates: Agonism, read-out: Agonist Activity (EC50).
Setting [5] is: Antagonism, read-out: Antagonist Activity (IC50).

T4 sequence (Q96LB2 whole entry): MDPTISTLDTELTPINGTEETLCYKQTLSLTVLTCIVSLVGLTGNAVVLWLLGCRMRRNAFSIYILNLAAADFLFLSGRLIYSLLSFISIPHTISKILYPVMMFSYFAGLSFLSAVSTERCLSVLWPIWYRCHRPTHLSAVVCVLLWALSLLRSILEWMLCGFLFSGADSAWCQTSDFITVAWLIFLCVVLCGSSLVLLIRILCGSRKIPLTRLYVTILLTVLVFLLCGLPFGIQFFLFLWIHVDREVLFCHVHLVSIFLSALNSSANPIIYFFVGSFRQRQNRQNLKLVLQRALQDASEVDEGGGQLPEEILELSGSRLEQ
T7 sequence (P14416 whole entry): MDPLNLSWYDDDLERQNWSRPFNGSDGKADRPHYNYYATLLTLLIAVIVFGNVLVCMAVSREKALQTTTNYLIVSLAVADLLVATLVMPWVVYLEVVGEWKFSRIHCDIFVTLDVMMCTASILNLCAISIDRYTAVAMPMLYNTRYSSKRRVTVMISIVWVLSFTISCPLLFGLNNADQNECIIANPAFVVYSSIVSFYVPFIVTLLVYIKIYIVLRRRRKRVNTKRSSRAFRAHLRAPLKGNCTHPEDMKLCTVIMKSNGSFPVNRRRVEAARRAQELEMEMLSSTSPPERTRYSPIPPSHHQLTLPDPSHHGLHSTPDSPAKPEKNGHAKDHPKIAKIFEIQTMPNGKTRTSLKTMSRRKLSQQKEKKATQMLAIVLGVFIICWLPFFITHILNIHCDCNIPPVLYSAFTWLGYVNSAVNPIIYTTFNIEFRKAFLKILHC
T5 sequence (P07550 whole entry): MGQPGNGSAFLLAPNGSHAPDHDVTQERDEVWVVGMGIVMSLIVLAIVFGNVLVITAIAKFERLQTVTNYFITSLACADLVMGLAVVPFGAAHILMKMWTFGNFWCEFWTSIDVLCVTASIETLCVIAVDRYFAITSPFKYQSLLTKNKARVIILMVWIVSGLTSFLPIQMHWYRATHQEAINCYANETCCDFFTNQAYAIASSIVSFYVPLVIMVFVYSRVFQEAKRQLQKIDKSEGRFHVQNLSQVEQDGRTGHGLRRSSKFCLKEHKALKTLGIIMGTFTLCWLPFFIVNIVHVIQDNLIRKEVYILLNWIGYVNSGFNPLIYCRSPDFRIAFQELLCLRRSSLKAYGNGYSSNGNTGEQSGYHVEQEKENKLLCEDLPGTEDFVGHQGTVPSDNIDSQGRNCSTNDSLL
µ-Receptor (OPRM1), sequence (P35372 whole entry): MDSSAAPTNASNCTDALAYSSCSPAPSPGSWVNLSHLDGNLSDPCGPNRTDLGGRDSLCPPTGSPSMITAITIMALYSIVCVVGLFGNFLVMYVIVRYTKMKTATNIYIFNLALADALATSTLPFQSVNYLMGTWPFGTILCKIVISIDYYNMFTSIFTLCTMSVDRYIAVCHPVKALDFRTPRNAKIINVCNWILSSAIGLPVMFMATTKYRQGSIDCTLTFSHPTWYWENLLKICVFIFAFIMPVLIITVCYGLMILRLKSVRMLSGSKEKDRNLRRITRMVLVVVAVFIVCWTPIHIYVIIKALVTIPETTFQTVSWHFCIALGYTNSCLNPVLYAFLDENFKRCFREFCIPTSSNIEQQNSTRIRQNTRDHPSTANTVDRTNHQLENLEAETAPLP
T8 sequence (Q9Y5N1 whole entry): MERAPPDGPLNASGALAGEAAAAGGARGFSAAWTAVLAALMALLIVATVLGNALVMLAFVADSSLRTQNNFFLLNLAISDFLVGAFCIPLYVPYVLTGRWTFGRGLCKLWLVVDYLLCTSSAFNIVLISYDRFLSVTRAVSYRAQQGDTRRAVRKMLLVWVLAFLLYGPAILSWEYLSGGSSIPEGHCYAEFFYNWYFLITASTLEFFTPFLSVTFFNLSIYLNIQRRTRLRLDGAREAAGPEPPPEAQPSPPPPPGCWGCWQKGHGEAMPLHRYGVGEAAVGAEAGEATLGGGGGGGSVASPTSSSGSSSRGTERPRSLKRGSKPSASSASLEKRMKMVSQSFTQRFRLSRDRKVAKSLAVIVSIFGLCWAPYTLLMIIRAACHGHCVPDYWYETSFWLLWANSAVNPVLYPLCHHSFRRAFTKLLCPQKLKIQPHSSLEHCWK
Description for C3aR1: Release of β-hexosaminidase from LAD2 cells was followed as a measurement of mast cell degranulation using a method described previously ([4]).
Potency data are presented as mean ± SEM.

For orientation: IC50 means the point on the concentration scale where inhibition reaches its midpoint. A word on the EC50: it is the midpoint of the concentration-response curve. As to `CC1(C)C(C(=O)Nc2ccccn2)C1(C)C` [Compound A], at MRGPRX2, the IC50 came to 0.0446 µM and the Agonist activity result was “No agonist activity was detected”. Further, the EC50 at A2A receptor (ADORA2A) was over 100 µM. Also, in [1], the “Activity on ion channel and enzyme targets” value was “inactive”. On C3aR1, the IC50 is over 50 µM and the “Effect on C3a-stimulated LAD2 degranulation” value is “lack of an effect”. Further, on MRGPRX1, the half-maximal effective concentration (EC50) is over 100 µM and the half-maximal inhibitory concentration (IC50) was over 100 µM.
With `C[C@@H](C(=O)Nc1cnc(Oc2ccc(F)cc2F)cn1)N1CCC(F)(F)[C@@H](c2cc[n+]([O-])cc2)C1` [Compound B], the IC50 on MRGPRX2 (Cortistatin 14 at approx. EC80, U2OS cells, read-out: Antagonist IC50 against Cortistatin 14) is 0.0036 µM; against C3aR1, over 50 µM; in [2] (setting [5]) it was over 100 µM; on D2 receptor (DRD2) (setting [5]) it was over 100 µM; on H3 receptor (HRH3), over 50 µM; on MRGPRX1, over 100 µM. The Agonist activity result at MRGPRX2 was “No agonist activity was detected”. Besides, the EC50 (at A2A receptor (ADORA2A); in data set [2] (setting [4]); in [3]; at D2 receptor (DRD2) (setting [4]); at µ-Receptor (OPRM1); at MRGPRX1) was over 100 µM in each case. Besides, the “Activity on ion channel and enzyme targets” value in data set [1] was “inactive”. The “Effect on C3a-stimulated LAD2 degranulation” value on C3aR1 is given as “lack of an effect”.

Source of the values: article PMC11527646, “Pharmacological blockade of the mast cell MRGPRX2 receptor supports investigation of its relevance in skin disorders” (Frontiers in Immunology, 2024).
